According to PubChem BioAssay AID256 (DTP/NCI, 2004):
“And” between values parts separate entries of the source, which are not always exact repeats. Equal entries are not always repeated. Inconclusive results and toxic doses are left out. Rule for the calls: active = survival T/C of 150% or more; inactive = T/C below 125% in these data.

Test system: CD2F1 mice, L1210 leukemia ip, survival T/C
Experiment: NCI In Vivo Anticancer Drug Screen. Data for tumor model L1210 Leukemia (intraperitoneal) in CD2F1 (CDF1) mice
Conditions: higher = longer survival
Outline: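 Ratio T/C, where T is the treated-group value and C the vehicle-dosed control value, from mice implanted with a transplantable tumor.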

[1] = endpoint: mean survival time, dose: 25.0 mg/kg/injection, schedule: Q04DX003 (ip), vehicle: saline with Tween-80
[2] = endpoint: mean survival time, dose: 50.0 mg/kg/injection, schedule: Q01DX009 (ip), vehicle: saline with Tween-80
[3] = endpoint: mean survival time, dose: 50.0 mg/kg/injection, schedule: Q04DX003 (ip), vehicle: saline with Tween-80
[4] = endpoint: mean survival time, dose: 100.0 mg/kg/injection, schedule: Q01DX001 (ip), vehicle: saline with Tween-80
[5] = endpoint: mean survival time, dose: 100.0 mg/kg/injection, schedule: Q01DX009 (ip), vehicle: saline with Tween-80
[6] = endpoint: mean survival time, dose: 100.0 mg/kg/injection, schedule: Q04DX003 (ip), vehicle: saline with Tween-80
[7] = endpoint: mean survival time, dose: 200.0 mg/kg/injection, schedule: Q01DX001 (ip), vehicle: saline with Tween-80
[8] = endpoint: mean survival time, dose: 200.0 mg/kg/injection, schedule: Q04DX003 (ip), vehicle: saline with Tween-80
[9] = endpoint: mean survival time, dose: 400.0 mg/kg/injection, schedule: Q04DX003 (ip), vehicle: saline with Tween-80
[10] = endpoint: mean survival time, dose: 200.0 mg/kg/injection, schedule: Q01DX009 (ip), vehicle: saline with Tween-80
[11] = endpoint: mean survival time, dose: 400.0 mg/kg/injection, schedule: Q01DX009 (ip), vehicle: saline with Tween-80
[12] = endpoint: mean survival time, dose: 100.0 mg/kg/injection, schedule: Q04DX003 (ip), vehicle: saline
[13] = endpoint: mean survival time, dose: 200.0 mg/kg/injection, schedule: Q04DX003 (ip), vehicle: saline
[14] = endpoint: mean survival time, dose: 400.0 mg/kg/injection, schedule: Q04DX003 (ip), vehicle: saline
[15] = endpoint: mean survival time, dose: 400.0 mg/kg/injection, schedule: Q01DX001 (ip), vehicle: saline with Tween-80

Measured: T/C

CCCOC(=O)c1ccc(NC(=O)Nc2ccc(C(=O)OCC)cc2)cc1
inactive: endpoint: mean survival time, dose: 25.0 mg/kg/injection, schedule: Q01DX001 (ip), vehicle: saline with Tween-80 96 % of control | endpoint: mean survival time, dose: 25.0 mg/kg/injection, schedule: Q01DX009 (ip), vehicle: saline with Tween-80 88 % of control | endpoint: mean survival time, dose: 25.0 mg/kg/injection, schedule: Q04DX002 (ip), vehicle: saline with Tween-80 92 % of control and 95 % of control | [1] 102 % of control | endpoint: mean survival time, dose: 50.0 mg/kg/injection, schedule: Q01DX001 (ip), vehicle: saline with Tween-80 93 % of control | [2] 88 % of control and 94 % of control | endpoint: mean survival time, dose: 50.0 mg/kg/injection, schedule: Q04DX002 (ip), vehicle: saline with Tween-80 92 % of control and 98 % of control | [3] 92 % of control | [4] 87 % of control and 93 % of control | [5] 91 % of control and 96 % of control | [6] 91 % of control and 94 % of control | [7] 86 % of control | endpoint: mean survival time, dose: 200.0 mg/kg/injection, schedule: Q04DX002 (ip), vehicle: saline with Tween-80 90 % of control | [8] 86 % of control | endpoint: mean survival time, dose: 400.0 mg/kg/injection, schedule: Q04DX002 (ip), vehicle: saline with Tween-80 90 % of control | [9] 88 % of control

COc1ccccc1NC(=O)Oc1ccc(OCc2ccccc2)cc1
inactive: [5] 94 % of control | [6] 108 % of control | [10] 88 % of control | [8] 100 % of control | [11] 87 % of control | [9] 95 % of control

NC(=O)c1c(F)cccc1Cl
inactive: [5] 102 % of control | [6] 101 % of control | [10] 105 % of control | [8] 98 % of control | [11] 102 % of control | [9] 106 % of control

O=C(Nc1ccc(F)c(Cl)c1)N(CCO)C1CCCCC1
inactive: endpoint: mean survival time, dose: 50.0 mg/kg/injection, schedule: Q01DX009 (ip), vehicle: Klucel (hydroxypropylcellulose) (HPC) 91 % of control | endpoint: mean survival time, dose: 100.0 mg/kg/injection, schedule: Q01DX009 (ip), vehicle: Klucel (hydroxypropylcellulose) (HPC) 102 % of control | endpoint: mean survival time, dose: 200.0 mg/kg/injection, schedule: Q01DX009 (ip), vehicle: Klucel (hydroxypropylcellulose) (HPC) 95 % of control

OCN(CO)c1ccc2c(c1)Cc1cc(Cl)ccc1-2
inactive: [12] 97 % of control | [13] 100 % of control | [14] 91 % of control

CN(C)c1ncnc2c1ncn2-c1cccc(-n2cnc3c(N(C)C)ncnc32)c1
inactive: endpoint: mean survival time, dose: 1.25 mg/kg/injection, schedule: Q01DX005 (ip), vehicle: other 103 % of control | endpoint: mean survival time, dose: 2.5 mg/kg/injection, schedule: Q01DX005 (ip), vehicle: other 88 % of control | endpoint: mean survival time, dose: 5.0 mg/kg/injection, schedule: Q01DX005 (ip), vehicle: other 92 % of control | endpoint: mean survival time, dose: 10.0 mg/kg/injection, schedule: Q01DX005 (ip), vehicle: other 92 % of control | endpoint: mean survival time, dose: 20.0 mg/kg/injection, schedule: Q01DX005 (ip), vehicle: other 88 % of control

COc1ccc(C(C)N=CC(C)(C)C)cc1 (stereo unspecified)
inactive: [8] 100 % of control | [9] 88 % of control

NCCNc1ccccc1C(=O)O
inactive: endpoint: median survival time, dose: 50.0 mg/kg/injection, schedule: Q04DX002 (ip), vehicle: saline with Tween-80 111 % of control | endpoint: median survival time, dose: 100.0 mg/kg/injection, schedule: Q04DX002 (ip), vehicle: saline with Tween-80 100 % of control | endpoint: median survival time, dose: 200.0 mg/kg/injection, schedule: Q04DX002 (ip), vehicle: saline with Tween-80 100 % of control | endpoint: median survival time, dose: 400.0 mg/kg/injection, schedule: Q04DX002 (ip), vehicle: saline with Tween-80 111 % of control

Cc1ccc(OCCOc2ccc([N+](=O)[O-])cc2)cc1
inactive: endpoint: mean survival time, dose: 200.0 mg/kg/injection, schedule: Q04DX003 (ip), vehicle: other 92 % of control | endpoint: mean survival time, dose: 400.0 mg/kg/injection, schedule: Q04DX003 (ip), vehicle: other 90 % of control

O=C(O)/C=C/c1ccccc1C(=O)O
inactive: endpoint: mean survival time, dose: 100.0 mg/kg/injection, schedule: Q01DX009 (ip), vehicle: saline 103 % of control | endpoint: mean survival time, dose: 200.0 mg/kg/injection, schedule: Q01DX009 (ip), vehicle: saline 101 % of control | endpoint: mean survival time, dose: 400.0 mg/kg/injection, schedule: Q01DX009 (ip), vehicle: saline 101 % of control

OCC1OC(O)C(O)C(O)C1O (stereo unspecified)
inactive: [12] 103 % of control | [13] 98 % of control | [14] 98 % of control

CC(C)(C)c1ccc(O)c(C(=O)N/N=C/c2ccccc2O)c1
inactive: [4] 97 % of control | [7] 104 % of control | [15] 93 % of control

COc1ccc(C(=S)c2ccc(OC)cc2)cc1
inactive: [4] 101 % of control | [7] 96 % of control | [15] 101 % of control

CCCC(N)C(=O)O (stereo unspecified)
inactive: [2] 106 % of control | [5] 98 % of control | [10] 104 % of control

Cc1cc(N2CCC(N3CCCC3)CC2)nc(/N=C(\N)Nc2ccc(Cl)c(Cl)c2)n1
inactive: endpoint: mean survival time, dose: 12.5 mg/kg/injection, schedule: Q04DX003 (ip), vehicle: saline with Tween-80 98 % of control | [1] 101 % of control | [3] 86 % of control

CC(C)(C)N/C(=C/C(=O)c1ccccc1)c1ccccc1
inactive: [6] 94 % of control | [8] 96 % of control | [9] 95 % of control

C#CCNc1ncnc2c1ncn2C1OC(CO)C(O)C1O (stereo unspecified)
inactive: endpoint: mean survival time, dose: 12.5 mg/kg/injection, schedule: Q01DX005 (ip), vehicle: other 96 % of control | endpoint: mean survival time, dose: 25.0 mg/kg/injection, schedule: Q01DX005 (ip), vehicle: other 97 % of control | endpoint: mean survival time, dose: 50.0 mg/kg/injection, schedule: Q01DX005 (ip), vehicle: other 111 % of control | endpoint: mean survival time, dose: 100.0 mg/kg/injection, schedule: Q01DX005 (ip), vehicle: other 114 % of control | endpoint: mean survival time, dose: 200.0 mg/kg/injection, schedule: Q01DX005 (ip), vehicle: other 111 % of control

CC(=O)CC(=O)c1ccccc1.CC(=O)CC(=O)c1ccccc1.CC(=O)CC(=O)c1ccccc1.[Tb]
inactive: [6] 93 % of control | [8] 91 % of control | [9] 88 % of control

CC(=O)NC1=CC(=Nc2ccc(N(C)C)cc2)C=CC1=O
inactive: endpoint: mean survival time, dose: 1.25 mg/kg/injection, schedule: Q01DX009 (ip), vehicle: suspension in saline 95 % of control and 97 % of control | endpoint: mean survival time, dose: 2.5 mg/kg/injection, schedule: Q01DX009 (ip), vehicle: suspension in saline 95 % of control and 103 % of control | endpoint: mean survival time, dose: 5.0 mg/kg/injection, schedule: Q01DX009 (ip), vehicle: suspension in saline 97 % of control and 101 % of control | endpoint: mean survival time, dose: 10.0 mg/kg/injection, schedule: Q01DX009 (ip), vehicle: suspension in saline 90 % of control and 97 % of control

C=C(C)[C@]12CC(C)C34OC(/C=C\C=C\CCCCCCCCC)(O[C@@H]1[C@@H]3[C@@H]1O[C@]1(CO)[C@@H](O)[C@]1(O)C(=O)C(C)=C[C@@H]41)O2 (stereo partly specified)
inactive: endpoint: mean survival time, dose: 0.01 mg/kg/injection, schedule: Q01DX009 (ip), vehicle: distilled water + alcohol 102 % of control | endpoint: mean survival time, dose: 0.02 mg/kg/injection, schedule: Q01DX009 (ip), vehicle: distilled water + alcohol 94 % of control | endpoint: mean survival time, dose: 0.04 mg/kg/injection, schedule: Q01DX009 (ip), vehicle: distilled water + alcohol 100 % of control | endpoint: mean survival time, dose: 0.09 mg/kg/injection, schedule: Q01DX009 (ip), vehicle: alcohol 95 % of control | endpoint: mean survival time, dose: 0.09 mg/kg/injection, schedule: Q01DX009 (ip), vehicle: distilled water + alcohol 96 % of control | endpoint: mean survival time, dose: 0.19 mg/kg/injection, schedule: Q01DX009 (ip), vehicle: alcohol 100 % of control | endpoint: mean survival time, dose: 0.38 mg/kg/injection, schedule: Q01DX009 (ip), vehicle: alcohol 101 % of control | endpoint: mean survival time, dose: 0.75 mg/kg/injection, schedule: Q01DX009 (ip), vehicle: alcohol 112 % of control | endpoint: mean survival time, dose: 1.5 mg/kg/injection, schedule: Q01DX009 (ip), vehicle: alcohol 117 % of control

O=P(OCCCO)(N1CC1)N1CC1
inactive: endpoint: mean survival time, dose: 25.0 mg/kg/injection, schedule: Q01DX001 (ip), vehicle: other 101 % of control | endpoint: mean survival time, dose: 50.0 mg/kg/injection, schedule: Q01DX001 (ip), vehicle: other 101 % of control | endpoint: mean survival time, dose: 100.0 mg/kg/injection, schedule: Q01DX001 (ip), vehicle: other 102 % of control | endpoint: mean survival time, dose: 200.0 mg/kg/injection, schedule: Q01DX001 (ip), vehicle: other 98 % of control | endpoint: mean survival time, dose: 400.0 mg/kg/injection, schedule: Q01DX001 (ip), vehicle: other 96 % of control

COc1ccc([N+](=O)[O-])cc1CO/N=C(/CCC(=O)O)C(=O)O
inactive: [6] 101 % of control | [8] 106 % of control | [9] 101 % of control

CCCCCCCCC(=O)CCCC
inactive: [12] 102 % of control | [13] 100 % of control | [14] 98 % of control

O=C1CSC(=S)N1/N=C/c1ccccc1
inactive: endpoint: mean survival time, dose: 100.0 mg/kg/injection, schedule: Q04DX002 (ip), vehicle: saline 103 % of control
